Measurements published in patent publication US10076519B2 (CYTOKINETICS, INC., priority 2010, dated 2018).

System: rabbit skeletal myofibrils (fast skeletal myofibrils)
Experiment: Activation of fast skeletal myofibrils (PUMA assay, PK/LDH-coupled ATPase at pCa25)
Format: biochemical
How it was run: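 Detergent-washed rabbit psoas myofibrils (~90% fast fibres, calcium-regulated) assayed at calcium giving 25% of maximal ATPase rate (pCa25). ADP turnover coupled via pyruvate kinase/lactate dehydrogenase to NADH oxidation, read at 340 nm. Buffer 12 mM PIPES, 2 mM MgCl2, 1 mM DTT, pH 6.8; AC1.4 values derived.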

[1] = median AC1.4 class, procedure of Example 39
[2] = AC1.4 determined according to the procedure of Example 39, reported as class symbols
[3] = median AC1.4 reported as class, procedure of Example 39

Compound	Mean AC1.4 [1]	also measured
Fc1cccnc1C1(CNc2ccc(-c3cn[nH]c3)nn2)CCC1 [{[(3-fluoro(2-pyridyl))cyclobutyl]methyl}(6-pyrazol-4-ylpyridazin-3-yl)amine]		Mean AC1.4 [2]: C (C=10-20 uM)
Fc1cccnc1C1(CNc2ccc(-c3ccnnc3)nn2)CCC1 [{[(3-fluoro(2-pyridyl))cyclobutyl]methyl}(6-pyridazin-4-ylpyridazin-3-yl)amine]	D (D=>20 uM)	
C=Cc1ccc(NCC2(c3ncccc3F)CCC2)nn1 [{[(3-fluoro(2-pyridyl))cyclobutyl]methyl}(6-vinylpyridazin-3-yl)amine]	D (D=>20 uM)	
CC(C)Nc1n[nH]c2ccc(-c3ccc(NCC4(c5ncccc5F)CCC4)nn3)cc12 [{[(3-fluoro(2-pyridyl))cyclobutyl]methyl}(6-{3-[(methylethyl)amino](1H-indazol-5-yl)}pyridazin-3-yl)amine]		Mean AC1.4 [2]: A (A=<1 uM)
CN1CCN(Cc2cnc(-c3ccc(NCC4(c5ncccc5F)CCC4)nn3)s2)CC1 [{[(3-fluoro(2-pyridyl))cyclobutyl]methyl}(6-{5-[(4-methylpiperazinyl)methyl](1,3-thiazol-2-yl)}pyridazin-3-yl)amine]		Mean AC1.4 [3]: B (B=1-10 uM)
Cn1cc(-c2ccc(NCC3(c4ncccc4F)CCC3)nn2)cn1 [{[(3-fluoro(2-pyridyl))cyclobutyl]methyl}[6-(1-methylpyrazol-4-yl)pyridazin-3-yl]amine]		Mean AC1.4 [2]: D (D=>20 uM)
Cc1ncc(-c2ccc(NCC3(c4ncccc4F)CCC3)nn2)cn1 [{[(3-fluoro(2-pyridyl))cyclobutyl]methyl}[6-(2-methylpyrimidin-5-yl)pyridazin-3-yl]amine]	D (D=>20 uM)	
Fc1cccnc1C1(CNc2ccc(-c3cnc(N4CCNCC4)nc3)nn2)CCC1 [{[(3-fluoro(2-pyridyl))cyclobutyl]methyl}[6-(2-piperazinylpyrimidin-5-yl)pyridazin-3-yl]amine]	D (D=>20 uM)	
COc1ccc2nc(-c3ccc(NCC4(c5ncccc5F)CCC4)nn3)sc2n1 [{[(3-fluoro(2-pyridyl))cyclobutyl]methyl}[6-(5-methoxy(1,3-thiazolino[5,4-b]pyridin-2-yl))pyridazin-3-yl]amine]	D (D=>20 uM)	
Fc1cccnc1C1(CNc2ccc(-c3ncc(-c4cc[nH]n4)s3)nn2)CCC1 [{[(3-fluoro(2-pyridyl))cyclobutyl]methyl}[6-(5-pyrazol-3-yl(1,3-thiazol-2-yl))pyridazin-3-yl]amine]	A (A=<1 uM)	
Fc1cccnc1C1(CNc2ccc(-c3ncc(-c4cn[nH]c4)s3)nn2)CCC1 [{[(3-fluoro(2-pyridyl))cyclobutyl]methyl}[6-(5-pyrazol-4-yl(1,3-thiazol-2-yl))pyridazin-3-yl]amine]	A (A=<1 uM)	
Fc1cccnc1C1(CNc2ccc(-c3ncc(CN4CCN(CC(F)(F)F)CC4)s3)nn2)CCC1 [{[(3-fluoro(2-pyridyl))cyclobutyl]methyl}[6-(5-{[4-(2,2,2-trifluoroethyl)piperazinyl]meth-yl}(1,3-thiazol-2-yl))pyridazin-3-yl]amine]		Mean AC1.4 [3]: B (B=1-10 uM)
Fc1cccnc1C1(CNc2ccc(Cc3ccccc3)nn2)CCC1 [{[(3-fluoro(2-pyridyl))cyclobutyl]methyl}[6-benzylpyridazin-3-yl]amine]		Mean AC1.4 [3]: D (D=>20 uM)
CNc1n[nH]c2ccc(-c3ccc(NCC4(c5ncccc5F)CCC4)nn3)cc12 [{[(3-fluoro(2-pyridyl))cyclobutyl]methyl}{6-[3-(methylamino)(1H-indazol-5-yl)]pyridazin-3-yl}amine]		Mean AC1.4 [2]: A (A=<1 uM)
Fc1cccnc1C1(CNc2ccc(-c3ncc(CN4CCOCC4)s3)nn2)CCC1 [{[(3-fluoro(2-pyridyl))cyclobutyl]methyl}{6-[5-(morpholin-4-ylmethyl)(1,3-thiazol-2-yl)]pyridazin-3-yl}amine]		Mean AC1.4 [3]: B (B=1-10 uM)
Fc1cccnc1C1(CNc2ccc(-c3ncc(CN4CCNCC4)s3)nn2)CCC1 [{[(3-fluoro(2-pyridyl))cyclobutyl]methyl}{6-[5-(piperazinylmethyl)(1,3-thiazol-2-yl)]pyridazin-3-yl}amine]		Mean AC1.4 [3]: B (B=1-10 uM)
COc1ncc(-c2ccc(NCC3(c4ccc(F)cc4)CCC3)nn2)cn1 [{[(4-fluorophenyl)cyclobutyl]meth-yl}[6-(2-methoxypyrimidin-5-yl)pyridazin-3-yl]amine]		Mean AC1.4 [2]: B (B=1-10 uM)
[6-({[(3-fluoro(2- pyridyl))cyclobutyl]methyl}ami- no)pyridazin-3-yl]-N-[(5- oxopyrrolidin-3- yl)methyl]carboxamide		Mean AC1.4 [3]: D (D=>20 uM)
ethyl 2-[6-({[(3-fluoro-2- pyridyl)cyclobutyl]methyl}ami- no)pyridazin-3-yl]-1,3-thiazole-4- carboxylate	D (D=>20 uM)	

Second part, led by results:

Mean AC1.4 [1]	Compound	also measured
B (B=1-10 uM)	Fc1cccnc1C1(CNc2ccc(-c3cnccn3)nn2)CCC1 [{[(3-fluoro(2-pyridyl))cyclobutyl]methyl}(6-pyrazin-2-ylpyridazin-3-yl)amine]	
B (B=1-10 uM)	Fc1cccnc1C1(CNc2ccc(-c3ncccn3)nn2)CCC1 [{[(3-fluoro(2-pyridyl))cyclobutyl]methyl}(6-pyrimidin-2-ylpyridazin-3-yl)amine]	
C (C=10-20 uM)	Cc1ncccc1-c1ccc(NCC2(c3ncccc3F)CCC2)nn1 [{[(3-fluoro(2-pyridyl))cyclobutyl]methyl}[6-(2-methyl(3-pyridyl))pyridazin-3-yl]amine]	
B (B=1-10 uM)	Fc1cccnc1-c1ccc(NCC2(c3ncccc3F)CCC2)nn1 [{[(3-fluoro(2-pyridyl))cyclobutyl]methyl}[6-(3-fluoro(2-pyridyl))pyridazin-3-yl]amine]	
D (D=>20 uM)	Fc1cccnc1C1(CNc2ccc(-c3ccc(N4CCOCC4)cc3)nn2)CCC1 [{[(3-fluoro(2-pyridyl))cyclobutyl]methyl}[6-(4-morpholin-4-ylphenyl)pyridazin-3-yl]amine]	
B (B=1-10 uM)	COc1ccc(-c2ccc(NCC3(c4ncccc4F)CCC3)nn2)nc1 [{[(3-fluoro(2-pyridyl))cyclobutyl]methyl}[6-(5-methoxy(2-pyridyl))pyridazin-3-yl]amine]	
B (B=1-10 uM)	Fc1cccnc1C1(CNc2ccc(-c3ncc(CC(F)(F)F)s3)nn2)CCC1 [{[(3-fluoro(2-pyridyl))cyclobutyl]methyl}{6-[5-(2,2,2-trifluoroethyl)(1,3-thiazol-2-yl)]pyridazin-3-yl}amine]	
A (A=<1 uM)	(2S)-2-amino-N-({2-[6-({[(3- fluoro(2- pyridyl))cyclobutyl]methyl}ami- no)pyridazin-3-yl](1,3-thiazol-5- yl)}methyl)-3-hydroxy-3- methylbutanamide	
